Assays:
HIV (HTLV-III B strain) = test: HIV replication inhibition assay (MTT, MT-4 cells); type: cell-based; settings: 4 days culture, concentration at which cell cytotoxicity by virus is inhibited 50%
Outline: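 MT-4 cells (2.5×10^4/well) infected with HTLV-III B stock (60 pfu) in presence of compound, cultured four days at 37 °C. Viability by MTT reduction, formazan read at 560 and 690 nm. EC50 is concentration inhibiting virus-induced cytotoxicity by 50%.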

[1] = target: T1, human ether-a-go-go related gene (hERG) channel (Homo sapiens, UniProt Q12809); test: hERG test (whole cell patch clamp, IKr); type: cell-based; settings: HEK293 cells expressing hERG channel, concentration not given
T1 construct: expressed in transfected cells; host or cells: HEK293
Text: For the purpose of assessing risk of an electrocardiogram QT interval prolongation, effects on delayed rectifier K+ current (IKr), which plays an important role in the ventricular repolarization process of the compound of the present invention, was studied using HEK293 cells expressing human ether-a-go-go related gene (hERG) channel.
After a cell was retained at a membrane potential of −80 mV by whole cell patch clamp method using an automated patch clamp system (PatchXpress 7000A, Axon Instruments Inc.), IKr induced by depolarization pulse stimulation at +40 mV for 2 seconds and, further, repolarization pulse stimulation at −50 mV for 2 seconds was recorded. […] From the recording IKr, an absolute value of the tail peak current was measured based on the current value at the resting membrane potential using an analysis software (DataXpress ver. 1, Molecular Devices Corporation). Further, the inhibition relative to the tail peak current before application of the test substance was calculated, and compared with the vehicle-applied group (0.1% dimethyl sulfoxide solution) to assess influence of the test substance on IKr.

CYP1A2 = target: T2, CYP1A2 (Homo sapiens, UniProt P05177); test: CYP inhibition assay, CYP1A2 (7-ethoxyresorufin O-deethylation); type: in vitro ADME; settings: pooled human hepatic microsome, 15 minutes, 37° C.
T2 construct: enzyme, pooled human hepatic microsome 0.2 mg protein/mL; from tissue; host or cells: pooled human liver microsomes
T2 sequence (P05177 1-516): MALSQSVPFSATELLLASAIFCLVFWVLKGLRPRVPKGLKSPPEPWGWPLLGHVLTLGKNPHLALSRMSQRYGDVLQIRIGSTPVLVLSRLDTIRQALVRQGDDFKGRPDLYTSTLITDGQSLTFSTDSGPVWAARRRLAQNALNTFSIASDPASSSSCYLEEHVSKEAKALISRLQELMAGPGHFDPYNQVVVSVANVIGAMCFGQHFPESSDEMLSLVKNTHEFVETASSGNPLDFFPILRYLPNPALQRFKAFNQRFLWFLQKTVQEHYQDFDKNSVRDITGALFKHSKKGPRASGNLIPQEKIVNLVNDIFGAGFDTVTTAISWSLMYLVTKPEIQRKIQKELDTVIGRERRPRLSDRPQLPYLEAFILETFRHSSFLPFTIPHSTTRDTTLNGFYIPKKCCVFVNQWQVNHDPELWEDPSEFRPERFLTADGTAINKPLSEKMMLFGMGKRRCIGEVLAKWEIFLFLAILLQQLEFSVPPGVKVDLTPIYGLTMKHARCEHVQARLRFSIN
Description: (§1) Using commercially available pooled human hepatic microsome, and employing, as markers, 7-ethoxyresorufin O-deethylation (CYP1A2), tolbutamide methyl-hydroxylation (CYP2C9), mephenytoin 4′-hydroxylation (CYP2C19), dextromethorphan O-demethylation (CYP2D6), and terfenedine hydroxylation (CYP3A4) as typical substrate metabolism reactions of human main five CYP enzyme forms (CYP1A2, 2C9, 2C19, 2D6, 3A4), an inhibitory degree of each metabolite production amount by a test compound was assessed. […]
(§2) Each five kinds of substrates, human hepatic microsome, and a test drug in 50 mmol/L Hepes buffer as a reaction solution was added to a 96-well plate as the composition as described above, NADPH, as a cofactor was added to initiate metabolism reactions as markers and, after the incubation at 37° C. for 15 minutes, a methanol/acetonitrile=1/1 (v/v) solution was added to stop the reaction. After the centrifugation at 3000 rpm for 15 minutes, resorufin (CYP1A2 metabolite) in the supernatant was quantified by a fluorescent multilabel counter and tolbutamide hydroxide (CYP2C9 metabolite), mephenytoin 4′ hydroxide (CYP2C19 metabolite), dextrorphan (CYP2D6 metabolite), and terfenadine alcohol (CYP3A4 metabolite) were quantified by LC/MS/MS. […]

CYP2C19 = target: T3, CYP2C19 (Homo sapiens, UniProt P33261); test: CYP inhibition assay, CYP2C19 (mephenytoin 4'-hydroxylation); type: in vitro ADME; settings: pooled human hepatic microsome, 15 minutes, 37° C.
T3 construct: enzyme, pooled human hepatic microsome 0.2 mg protein/mL; from tissue; host or cells: pooled human liver microsomes
Description: as §1, §2

CYP2D6 = target: T4, CYP2D6 (Homo sapiens, UniProt P10635); test: CYP inhibition assay, CYP2D6 (dextromethorphan O-demethylation); type: in vitro ADME; settings: pooled human hepatic microsome, 15 minutes, 37° C.
T4 construct: enzyme, pooled human hepatic microsome 0.2 mg protein/mL; from tissue; host or cells: pooled human liver microsomes
Description: as §1, §2

CYP3A4 = target: T5, CYP3A4 (Homo sapiens, UniProt P08684); test: CYP inhibition assay, CYP3A4 (terfenedine hydroxylation); type: in vitro ADME; settings: pooled human hepatic microsome, 15 minutes, 37° C.
T5 construct: enzyme, pooled human hepatic microsome 0.2 mg protein/mL; from tissue; host or cells: pooled human liver microsomes
Description: as §1, §2

[2] = type: in vitro ADME; settings: 0 h
[3] = Solubility test (1% DMSO, artificial intestinal juice pH 6.8); type: physicochemical; settings: pH 6.8, 1% DMSO, 16 hours at 25° C.
Description: The solubility of each compound was determined under 1% DMSO addition conditions. A 10 mmol/L solution of the compound was prepared with DMSO, and 6 μL of the solution was added to 594 μL of an artificial intestinal juice (:water and a 118 mL solution of 0.2 mol/L NaOH reagent are added to 250 mL of 0.2 mol/L potassium dihydrogen phosphate reagent to reach 1000 mL) with a pH of 6.8. The mixture is left standing for 16 hours at 25° C., and the mixture is vacuum-filtered. The filtrate is two-fold diluted with methanol/water=1/1 (v/v), and the compound concentration in the filtrate is measured with HPLC or LC/MS/MS by the absolute calibration method.

[4] = tested on: Salmonella typhimurium TA98 strain, TA100 strain; settings: Salmonella typhimurium TA98 and TA100, with and without metabolism activating condition
Description: The mutagenicity of the compound of the present invention was assayed.
20 μL of freezing-stored rat typhoid bacillus (Salmonella typhimurium TA98 strain, TA100 strain) was inoculated on 10 mL of a liquid nutrient medium (2.5% Oxoid nutrient broth No. 2), and this was cultured before shaking at 37° C. for 10 hours. 9 mL of a bacterial solution of the TA98 strain was centrifuged (2000×g, 10 minutes) to remove a culturing solution. The bacteria was suspended in F buffer (K2HPO4: 3.5 g/L, KH2PO4: 1 g/L, (NH4)2SO4: 1 g/L, trisodium citrate dehydrate: 0.25 g/L, MgSO4.7H2O: 0.1 g/L), and the suspension was added to 110 mL of an Exposure medium (Micro F buffer containing Biotin: 8 μg/mL, histidine: 0.2 μg/mL, glucose: 8 mg/mL). The TA100 strain was added to 120 mL of the Exposure medium per 3.16 mL of the bacterial solution to prepare a test bacterial solution. […] Since a well containing a bacterium which has obtained the proliferation ability by mutation of an amino acid (histidine) synthesizing enzyme gene turns from purple to yellow due to a pH change, the bacterium proliferation well which has turned to yellow in 48 wells per dose is counted, and was assessed by comparing with a negative control group. […]

T5 sequence (P08684 whole entry): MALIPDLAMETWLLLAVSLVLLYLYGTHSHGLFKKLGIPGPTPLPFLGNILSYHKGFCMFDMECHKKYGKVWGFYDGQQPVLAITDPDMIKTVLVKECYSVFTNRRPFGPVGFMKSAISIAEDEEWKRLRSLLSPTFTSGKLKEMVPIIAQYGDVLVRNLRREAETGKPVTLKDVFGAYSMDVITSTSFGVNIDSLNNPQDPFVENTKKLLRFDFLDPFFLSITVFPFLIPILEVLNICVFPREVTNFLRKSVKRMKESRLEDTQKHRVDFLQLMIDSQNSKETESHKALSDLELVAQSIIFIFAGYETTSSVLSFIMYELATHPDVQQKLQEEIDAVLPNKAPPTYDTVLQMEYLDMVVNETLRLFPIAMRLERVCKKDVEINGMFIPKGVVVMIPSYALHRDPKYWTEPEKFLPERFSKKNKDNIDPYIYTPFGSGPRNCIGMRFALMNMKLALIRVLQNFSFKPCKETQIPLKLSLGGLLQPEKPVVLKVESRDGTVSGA
T4 sequence (P10635 whole entry): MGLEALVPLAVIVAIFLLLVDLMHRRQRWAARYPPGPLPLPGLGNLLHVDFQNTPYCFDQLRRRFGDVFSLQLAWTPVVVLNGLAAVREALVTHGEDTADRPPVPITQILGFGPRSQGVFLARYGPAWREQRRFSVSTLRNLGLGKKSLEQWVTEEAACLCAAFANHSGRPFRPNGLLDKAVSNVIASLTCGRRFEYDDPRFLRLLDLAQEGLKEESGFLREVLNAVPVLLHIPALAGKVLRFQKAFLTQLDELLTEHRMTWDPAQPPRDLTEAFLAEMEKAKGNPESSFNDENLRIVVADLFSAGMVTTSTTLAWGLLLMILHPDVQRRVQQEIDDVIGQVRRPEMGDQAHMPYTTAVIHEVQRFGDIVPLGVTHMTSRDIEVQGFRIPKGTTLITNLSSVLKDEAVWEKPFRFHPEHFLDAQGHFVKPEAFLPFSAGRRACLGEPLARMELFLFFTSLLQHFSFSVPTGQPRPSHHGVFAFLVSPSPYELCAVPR
T3 sequence (P33261 whole entry): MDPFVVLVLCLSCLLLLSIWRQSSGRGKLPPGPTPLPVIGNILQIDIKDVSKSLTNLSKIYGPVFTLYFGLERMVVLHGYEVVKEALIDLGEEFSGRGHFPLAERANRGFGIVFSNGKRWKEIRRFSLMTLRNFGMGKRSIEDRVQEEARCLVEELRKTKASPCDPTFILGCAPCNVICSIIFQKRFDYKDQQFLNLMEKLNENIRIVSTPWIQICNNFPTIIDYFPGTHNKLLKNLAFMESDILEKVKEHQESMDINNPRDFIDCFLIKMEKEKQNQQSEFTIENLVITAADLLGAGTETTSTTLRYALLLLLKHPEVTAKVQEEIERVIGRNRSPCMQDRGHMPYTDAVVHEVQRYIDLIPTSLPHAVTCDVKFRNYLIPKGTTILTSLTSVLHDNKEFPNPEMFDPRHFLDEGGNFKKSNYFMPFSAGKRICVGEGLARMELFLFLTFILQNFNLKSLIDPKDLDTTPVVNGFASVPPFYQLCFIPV
T1 sequence (Q12809 whole entry): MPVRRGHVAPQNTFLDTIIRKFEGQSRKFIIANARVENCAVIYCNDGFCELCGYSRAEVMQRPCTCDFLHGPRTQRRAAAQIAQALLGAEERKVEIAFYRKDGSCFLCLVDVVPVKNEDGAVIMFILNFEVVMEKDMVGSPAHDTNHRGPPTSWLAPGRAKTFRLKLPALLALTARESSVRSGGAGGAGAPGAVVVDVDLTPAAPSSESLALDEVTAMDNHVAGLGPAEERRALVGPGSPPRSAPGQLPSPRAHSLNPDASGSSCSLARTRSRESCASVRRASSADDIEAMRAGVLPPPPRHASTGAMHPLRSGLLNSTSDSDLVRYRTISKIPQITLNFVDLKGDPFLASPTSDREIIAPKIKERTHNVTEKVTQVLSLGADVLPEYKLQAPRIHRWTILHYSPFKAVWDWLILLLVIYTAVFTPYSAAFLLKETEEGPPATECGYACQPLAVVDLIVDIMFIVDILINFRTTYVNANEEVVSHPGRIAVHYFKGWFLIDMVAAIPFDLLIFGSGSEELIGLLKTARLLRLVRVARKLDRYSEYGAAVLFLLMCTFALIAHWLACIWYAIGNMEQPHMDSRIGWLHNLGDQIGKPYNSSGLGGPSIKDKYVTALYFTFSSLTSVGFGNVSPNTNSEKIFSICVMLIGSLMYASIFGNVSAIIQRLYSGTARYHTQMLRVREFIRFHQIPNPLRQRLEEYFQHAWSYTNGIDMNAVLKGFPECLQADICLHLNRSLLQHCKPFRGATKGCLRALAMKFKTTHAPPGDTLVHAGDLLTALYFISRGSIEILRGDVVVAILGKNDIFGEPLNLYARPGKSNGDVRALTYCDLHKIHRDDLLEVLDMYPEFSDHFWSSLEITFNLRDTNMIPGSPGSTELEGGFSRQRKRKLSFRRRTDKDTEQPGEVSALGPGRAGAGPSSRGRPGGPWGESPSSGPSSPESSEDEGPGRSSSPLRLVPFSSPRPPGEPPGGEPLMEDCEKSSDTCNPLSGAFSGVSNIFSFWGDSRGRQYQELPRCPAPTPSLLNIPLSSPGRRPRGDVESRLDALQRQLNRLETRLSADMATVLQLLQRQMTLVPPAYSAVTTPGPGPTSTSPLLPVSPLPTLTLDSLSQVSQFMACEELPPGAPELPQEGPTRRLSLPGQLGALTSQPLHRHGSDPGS

Which EC50 (HIV (HTLV-III B strain)) does the source give for Cc1c2c(c(C)c(C(OC(C)(C)C)C(=O)O)c1-c1ccc3c(c1)CCCO3)NC(=O)N(Cc1ccccc1)C2 (stereo not shown) [Compound 7] here?
Its EC50 is 9.6 nM.

What about the “inhibition ratio (hERG, IKr tail peak current)” value [1] of the same molecule?
Its value is 2.6%.

Which EC50 (HIV (HTLV-III B strain)) does the source give for Cc1c(-c2c(C)c3c(c(C)c2[C@H](OC(C)(C)C)C(=O)O)NS(=O)(=O)Cc2ccccc2-3)ccc2c1CCCO2 [Compound 10] here?
The EC50 was 2.4 nM.

What about the IC50 (CYP1A2) of the same molecule?
Its IC50 is no less than 20 µM.

And the IC50 (CYP2C19)?
Its IC50 is no less than 20 µM.

And the IC50 (CYP2D6)?
The IC50 was no less than 20 µM.

And the IC50 (CYP3A4)?
The IC50 was no less than 20 µM.

What about the “remaining amount of compound in liver microsomes of rat” value [2] of the same molecule?
Its value is 91%.

And the “solubility in the artificial intestinal juice” value [3]?
Its value is no less than 50 µM.

What about the mutagenicity [4] of the same molecule?
Its mutagenicity is “negative”.
